Measurements: US12473289B2, “Heterocyclic compounds as delta-5 desaturase inhibitors and methods of use” (Amgen Inc., priority 2019, dated 2025)

Columns and labels:
Delta-5-Desaturase (D5D) [1] = molecular target: Delta-5-Desaturase (D5D) (Mus musculus (Mouse), UniProt Q920L1); experiment: In vivo measurement of Delta-5-Desaturase inhibitory activity (plasma AA/DGLA ratio in DIO mice); conditions: single oral dose 30 mg/kg, read-out: Average % D5D Inhibition expressed as Plasma Endogenous AA/DGLA Ratio
Procedure: In vivo Measurement of Delta-5-Desaturase Inhibitory Activity
Diet-induced obese (DIO; Jackson Laboratories strain #3800050) mice were used to screen for pharmacodynamic (PD) activity of test compounds. Generally, 14 to 24 week old DIO mice, were administered test compounds formulated in the vehicle of 2% hydroxypropyl methylcellulose (HPMC) and 1% Tween80. Animals were dosed on body weight by oral gavage with a single dose (30 mg/kg) for PD studies. Necropsy included plasma collection for PUFA analysis. 10 μl of plasma or standards diluted in surrogate matrix (65 g/l bovine serum albumin in Dulbecco's phosphate-buffered saline) were mixed with 10 μl of an internal standard (100 μM alpha-linolenic acid-d14 (ALA-d14, Cayman Chemical)) in a 96 well plate. 100 μl of 2N NAOH was added to the mixture for subsequent saponification at 65° C. for 1 hour. The mixture was then acidified with 50 μl of formic acid followed by two consecutive hexane extractions. Hexane (500 μl) was added and the mixture thoroughly mixed by vortexing, followed by centrifugation at 4,000 rpm for 15 min. The hexane phase was transferred to a new 1 ml 96 well plate and the remaining aqueous layer was extracted with hexane. The organic extracts were combined and the solvent was removed by placing the plate under nitrogen gas at 55° C. 250 μl of 90% methanol was added to the plate followed by vortexing for 2 minutes. 200 μl of the samples were transferred to a new 96 well polypropylene plate. The samples were analyzed on a LC-MS/MS for the following PUFAs: arachidonic acid (AA), dihomo-gamma-linolenic acid (DGLA), with ALA-d14 as the internal standard. Description of the LC-MS/MS method: 5 μl of sample was injected onto a Poroshell 120 EC-C18 3.0×50 mm, 1.9 μm id column. […] The PUFA peak areas were quantified by using the SCIEX Analyst software. […] The relative decrease of the AA/DGLA ratio of the test compound administered group relative to the vehicle administered group was calculated and used as an index for the degree of D5D inhibition.
The results presented in Table 27 were obtained using certain compounds described herein in the in vivo protocol described above.

Delta-5-Desaturase (D5D) [2] = molecular target: Delta-5-Desaturase (D5D) (Homo sapiens (Human), UniProt O60427); experiment: In vitro measurement of Delta-5-Desaturase inhibitory activity using DGLA-CoA and Arachidonyl-CoA mass spectrometric assays; format: biochemical; conditions: membrane preparations of D5D-overexpressing HEK293 6E cells; averaged over at least two independent runs
How it was run: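 Membranes from D5D-overexpressing HEK293 6E cells (10 μg/mL final) in Tris pH 7.5 with MgCl2, octyl glucoside and TCEP were mixed 1:1 with substrate solution (0.01 mM DGLA, 0.25 mM NADH, 0.25 mM ATP, 0.05 mM CoA) for 1 h at ambient temperature. RapidFire SPE-MS/MS MRM; IC50 by 4-parameter fit, ≥2 runs.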

Delta-5-Desaturase (D5D) (Homo sapiens (Human), UniProt O60427), sequence (O60427 whole entry, species assumed): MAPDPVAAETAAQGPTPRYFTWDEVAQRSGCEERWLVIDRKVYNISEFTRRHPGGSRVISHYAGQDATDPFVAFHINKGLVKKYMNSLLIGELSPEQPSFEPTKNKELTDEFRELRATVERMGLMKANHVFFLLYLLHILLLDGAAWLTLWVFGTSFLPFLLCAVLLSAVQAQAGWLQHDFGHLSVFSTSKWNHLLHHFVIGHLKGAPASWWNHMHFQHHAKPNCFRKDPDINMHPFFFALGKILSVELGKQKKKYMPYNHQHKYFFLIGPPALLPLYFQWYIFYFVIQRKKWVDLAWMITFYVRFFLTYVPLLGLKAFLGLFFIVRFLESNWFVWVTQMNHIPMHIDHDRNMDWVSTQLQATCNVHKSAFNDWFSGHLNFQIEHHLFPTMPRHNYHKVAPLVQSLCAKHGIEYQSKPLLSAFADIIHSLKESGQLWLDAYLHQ
Delta-5-Desaturase (D5D) (Mus musculus (Mouse), UniProt Q920L1), sequence (Q920L1 whole entry): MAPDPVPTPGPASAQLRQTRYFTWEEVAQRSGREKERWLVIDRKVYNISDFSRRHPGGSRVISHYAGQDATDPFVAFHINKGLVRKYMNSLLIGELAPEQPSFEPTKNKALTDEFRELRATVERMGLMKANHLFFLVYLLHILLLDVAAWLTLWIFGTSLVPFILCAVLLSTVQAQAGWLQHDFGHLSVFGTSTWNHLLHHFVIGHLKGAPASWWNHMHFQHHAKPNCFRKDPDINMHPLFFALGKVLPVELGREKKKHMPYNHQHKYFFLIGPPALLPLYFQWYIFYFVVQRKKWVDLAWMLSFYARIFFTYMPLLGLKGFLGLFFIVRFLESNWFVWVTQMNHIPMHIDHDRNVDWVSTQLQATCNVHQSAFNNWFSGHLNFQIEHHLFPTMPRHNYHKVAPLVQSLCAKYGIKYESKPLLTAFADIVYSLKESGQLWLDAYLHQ

Compound | inhibition in vivo at 30 mg/kg (Delta-5-Desaturase (D5D) [1]) | IC50 (Delta-5-Desaturase (D5D) [2])
COc1ccn2c(=O)c(-c3cnn(CC(C)(F)F)c3)c(C(F)(F)F)nc2c1 [Example 1-39, 3-(1-(2,2-difluoropropyl)-1H-pyrazol-4-yl)-8-methoxy-2-(trifluoromethyl)-4H-pyrido[1,2-a]pyrimidin-4-one] | 62% | 42.2 nM
COc1ccn2c(=O)c(-c3ccc(OCC(F)(F)F)cc3)c(C(F)(F)F)nc2n1 [Example 1-50, 8-methoxy-3-(4-(2,2,2-trifluoroethoxy)phenyl)-2-(trifluoromethyl)-4H-pyrimido[1,2-a]pyrimidin-4-one] | 73% | 16.8 nM
COc1ccn2c(=O)c(-c3ccc(OCC(F)(F)F)cc3F)c(C(F)(F)F)nc2c1 [Example 1-20, 3-(2-fluoro-4-(2,2,2-trifluoroethoxy)phenyl)-8-methoxy-2-(trifluoromethyl)-4H-pyrido[1,2-a]pyrimidin-4-one] | 78% | 8.9 nM
O=c1c(-c2ccc(OCC(F)(F)F)cc2)c(C(F)(F)F)nc2ccccn12 [Example 1-42, 3-(4-(2,2,2-trifluoroethoxy)phenyl)-2-(trifluoromethyl)-4H-pyrido[1,2-a]pyrimidin-4-one] | 64% | 10.4 nM
CCc1nc2cc(OC)ccn2c(=O)c1-c1ccc(OCC(F)(F)F)cc1 [Example 1-77, 2-ethyl-8-methoxy-3-(4-(2,2,2-trifluoroethoxy)phenyl)-4H-pyrido[1,2-a]pyrimidin-4-one] | 75% | 6.6 nM
COc1ccn2c(=O)c(-c3ccc(OCC(F)(F)F)c(F)c3)c(C(F)(F)F)nc2c1 [Example 1-48, 3-(3-fluoro-4-(2,2,2-trifluoroethoxy)phenyl)-8-methoxy-(trifluoromethyl)-4H-pyrido[1,2-a]pyrimidin-4-one] | 66% | 5.1 nM
COc1ccn2c(=O)c(-c3ccc(OCC(F)(F)F)cc3)c(OC)nc2c1 [Example 1-80, 2,8-dimethoxy-3-(4-(2,2,2-trifluoroethoxy)phenyl)-4H-pyrido[1,2-a]pyrimidin-4-one] | 57% | 12.5 nM
COc1ccn2c(=O)c(-c3ccc(OCC(F)F)cc3F)c(C(F)(F)F)nc2c1 [Example 1-41, 3-(4-(2,2-difluoroethoxy)-2-fluorophenyl)-8-methoxy-2-(trifluoromethyl)-4H-pyrido[1,2-a]pyrimidin-4-one] | 63% | 24.9 nM
[2H]C([2H])([2H])Oc1ccn2c(=O)c(-c3cnn(CC(F)(F)C(F)(F)F)c3)c(C(F)(F)F)nc2c1 [Example 1-33, 8-(methyloxy-d3)-3-(1-(2,2,3,3,3-pentafluoropropyl)-1H-pyrazol-4-yl)-2-(trifluoromethyl)-4H-pyrido[1,2-a]pyrimidin-4-one] | 84% | 17.3 nM
COc1ccn2c(=O)c(-c3ccc(OC(F)(F)F)cc3F)c(C(F)(F)F)nc2c1 [Example 1-9, 3-(2-fluoro-4-(trifluoromethoxy)phenyl)-8-methoxy-2-(trifluoromethyl)-4H-pyrido[1,2-a]pyrimidin-4-one] | 35% | 
CCc1nc2cc(OC)ccn2c(=O)c1-c1ccc(OCC(F)(F)F)nc1 [Example 1-60, 2-ethyl-8-methoxy-3-(6-(2,2,2-trifluoroethoxy)-3-pyridinyl)-4H-pyrido[1,2-a]pyrimidin-4-one] |  | 37.8 nM

Now from value to compound:

inhibition in vivo at 30 mg/kg (Delta-5-Desaturase (D5D) [1]) | IC50 (Delta-5-Desaturase (D5D) [2]) | Compound
44% | 12.9 nM | CCOc1nc2cc(OC)ccn2c(=O)c1-c1ccc(OCC(F)(F)F)cc1 [Example 1-81, 2-ethoxy-8-methoxy-3-(4-(2,2,2-trifluoroethoxy)phenyl)-4H-pyrido[1,2-a]pyrimidin-4-one]
52% | 23.9 nM | O=c1c(-c2cnn(CC(F)(F)C(F)(F)F)c2)c(C(F)(F)F)nc2cc(CO)ccn12 [Example 13-1, 8-(Hydroxymethyl)-3-(1-(2,2,3,3,3-pentafluoropropyl)-1H-pyrazol-4-yl)-2-(trifluoromethyl)-4H-pyrido[1,2-a]pyrimidin-4-one]
70% | 28.9 nM | COc1ccn2c(=O)c(-c3ccc(OC(C)(C)C#N)cc3)c(C(F)(F)F)nc2c1 [Example 24, 2-(4-(8-Methoxy-4-oxo-2-(trifluoromethyl)-4H-pyrido[1,2-a]pyrimidin-3-yl)phenoxy)-2-methylpropanenitrile]
74% | 43.8 nM | O=c1ccn2c(=O)c(-c3ccc(OCC(F)(F)F)cc3)c(C(F)(F)F)[nH]c2c1 [Example 10-1, 3-(4-(2,2,2-Trifluoroethoxy)phenyl)-2-(trifluoromethyl)-4H-pyrido[1,2-a]pyrimidine-4,8(1H)-dione]
73% | 35.7 nM | Nc1ccn2c(=O)c(-c3ccc(OCC(F)(F)F)cc3)c(C(F)(F)F)nc2n1 [Example 14-2, 8-amino-3-(4-(2,2,2-trifluoroethoxy)phenyl)-2-(trifluoromethyl)-4H-pyrimido[1,2-a]pyrimidin-4-one]
79% | 11.6 nM | COc1ccn2c(=O)c(-c3ccc(O[C@@H](C)C#N)cc3)c(C(F)(F)F)nc2c1 [Example 8-9, (2S)-2-(4-(8-methoxy-4-oxo-2-(trifluoromethyl)-4H-pyrido[1,2-a]pyrimidin-3-yl)phenoxy)propanenitrile]
75% | 9.4 nM | O=c1c(-c2ccc(OCC(F)(F)F)cc2)c(C(F)(F)F)nc2cc(CF)ccn12 [Example 13-4, 8-(fluoromethyl)-3-(4-(2,2,2-trifluoroethoxy)phenyl)-2-(trifluoromethyl)-4H-pyrido[1,2-a]pyrimidin-4-one]
79% | 4 nM | [2H]C([2H])([2H])Oc1ccn2c(=O)c(-c3ccc(OCC(F)(F)F)cc3)c(C(F)(F)F)nc2c1 [Example 11-2, 8-(methyloxy-d3)-3-(4-(2,2,2-trifluoroethoxy)phenyl)-2-(trifluoromethyl)-4H-pyrido[1,2-a]pyrimidin-4-one]
51% | 14.8 nM | Nc1ccn2c(=O)c(-c3cnn(CC(F)(F)C(F)(F)F)c3)c(C(F)(F)F)nc2c1 [Example 6-1, 8-Amino-3-(1-(2,2,3,3,3-pentafluoropropyl)-1H-pyrazol-4-yl)-2-(trifluoromethyl)-4H-pyrido[1,2-a]pyrimidin-4-one]
75% | 3.8 nM | O=c1c(-c2cnn(CC(F)(F)C(F)(F)F)c2)c(C(F)(F)F)nc2ccc(Cl)cn12 [Example 35, 7-Chloro-3-[1-(2,2,3,3,3-pentafluoropropyl)-1H-pyrazol-4-yl]-2-(trifluoromethyl)-4H-pyrido[1,2-a]pyrimidin-4-one]
66% |  | Nc1ccn2c(=O)c(-c3ccc(OCC(F)(F)F)cc3)c(C(F)(F)F)nc2c1 [Example 6-2, 8-amino-3-(4-(2,2,2-trifluoroeth-oxy)phenyl)-2-(trifluoromethyl)-4H-pyrido[1,2-a]pyrimidin-4-one]
 | 8.9 nM | O=c1c(-c2cnn(CC(F)(F)C(F)(F)F)c2)c(C(F)(F)F)nc2ccccn12 [Example 39-5, 3-[1-(2,2,3,3,3-pentafluoropropyl)-1H-pyrazol-4-yl]-2-(trifluoromethyl)-4H-pyrido[1,2-a]pyrimidin-4-one]
 | 46.4 nM | COc1ccn2c(=O)c(-c3cnn(CC(F)(F)C(F)(F)F)c3)c(C(F)(F)F)nc2c1F [Example 39-4, 9-fluoro-8-methoxy-3-[1-(2,2,3,3,3-pentafluoropropyl)-1H-pyrazol-4-yl]-2-(trifluoromethyl)-4H-pyrido[1,2-a]pyrimidin-4-one]
 | 85 nM | COc1ccn2c(=O)c(-c3ccn(CC(F)(F)C(F)(F)F)n3)c(C(F)(F)F)nc2c1 [Example 39-1, 8-Methoxy-3-[1-(2,2,3,3,3-pentafluoropropyl)-1H-pyrazol-3-yl]-2-(trifluoromethyl)-4H-pyrido[1,2-a]pyrimidin-4-one]
 | 10100 nM | CS(=O)(=O)c1ccn2c(=O)c(-c3ccc(OCC(F)(F)F)cc3)c(C(F)(F)F)nc2c1 [Example 19, 8-(Methylsulfonyl)-3-(4-(2,2,2-trifluoroethoxy)phenyl)-2-(trifluoromethyl)-4H-pyrido[1,2-a]pyrimidin-4-one]
 | 198 nM | CCCn1cc(-c2c(C(F)(F)F)nc3ccccn3c2=O)cn1 [Example 5-4, 3-(1-propyl-1H-pyrazol-4-yl)-2-(trifluoromethyl)-4H-pyrido[1,2-a]pyrimidin-4-one]
